The values that follow come from patent US20230390251A1, “METHODS OF TREATING RIBONUCLEOTIDE REDUCTASE-RELATED DISEASES WITH A RIBONUCLEOTIDE REDUCTASE INHIBITOR” (TAIHO PHARMACEUTICAL CO., LTD., priority 2020, published 2023).

Structures are written as SMILES.

The subject of experiment [1] is Human acute myelocytic leukemia (AML) cell line MV-4-11 cells. The experiment can be described thus: Anti-tumor effect (relative tumor volume) in nude mice implanted with MV-4-11 cells. Format: in vivo. The following applies: for effect of reducing tumor volume (RTV) compared to the Control Group: Day 15. Here is the method: Anti-tumor Effect and body weight change in QOD Dosing Regimen Human acute myelocytic leukemia (AML) cell line MV-4-11 cells (American Type Culture Collection CRL-9591™) were implanted in the right thorax of male nude mice (CLEA Japan, Inc.). After implantation of the tumor, the major axis (mm) and minor axis (mm) of the tumor were measured, and tumor volume (TV) was calculated for each mouse. Then, the mice were assigned to the following groups, Control group (◯), Continuous Dosing Group (●: 100 mg/kg/day; ⋄: 150 mg/kg/day) and QOD Dosing Group (▴: 200 mg/kg/day; ♦: 300 mg/kg/day), so that the average TV of each group was equivalent. The day in which the grouping (n=5) was conducted was taken as Day 0.
5-chloro-2-(N-((1S,2R)-2-(6-fluoro-2,3-dimethylphenyl)-1-(5-oxo-4,5-dihydro-1,3,4-oxadiazol-2-yl)propyl)sulfamoyl)benzamide (Compound A) was suspended in 5 mg/mL hypromellose solution to provide appropriate test samples for 100 mg/kg, 150 mg/kg. 200 mg/kg, and 300 mg/kg dosing regimen. Animals of the Control group were not treated.
To mice in the Continuous Dosing Group, 100 mg/kg/day or 150 mg/kg/day of Compound A was orally administered once daily from Day 1 to Day 14. The total dosage for mice in the Continuous Dosing Group administered 100 mg/kg/day (Group C-1) was 1400 mg/kg, and the total dosage for mice in the Continuous Dosing Group administered 150 mg/kg/day (Group C-2) was 2100 mg/kg.
To mice in the QOD Dosing Group, 200 mg/kg/day or 300 mg/kg/day of Compound A was orally administered once every other day for two weeks (Days 1, 3, 5, 7, 9, 11 and 13). The total dosage for mice in the QOD Dosing Group administered 200 mg/kg/day (Group QOD-1) was 1400 mg/kg, and the total dosage for mice in the QOD Dosing Group administered 300 mg/kg/day (Group QOD-2) was 2100 mg/kg.
On Days 4, 8, 11 and 15, using the following formula: TV (mm^3)=(major axis×minor axis^2)/2, relative tumor volume (RTV) was calculated as an index of anti-tumor effect during the dosing period for each group (FIG. 1).
Similar to Example 1, anti-tumor effect and body weight change were studied in mice harboring MV-4-11 cells among the following five groups: Control group (◯), Continuous Dosing Group (●: 100 mg/kg/day; ⋄: 150 mg/kg/day) and QW Dosing Group (▪: 700 mg/kg/day; x: 1050 mg/kg/day).
To mice in the QW Dosing Group, 700 mg/kg/day or 1050 mg/kg/day of Compound A was orally administered once per week for two weeks (Days 1 and 8). The total dosage for mice in the QW Dosing Group administered 700 mg/kg/day (Group QW-1) was 1400 mg/kg, and the total dosage for mice in the QW Dosing Group administered 1050 mg/kg/day (Group QW-2) was 2100 mg/kg.
Similar to Example 1, anti-tumor effect and body weight change were studied in mice harboring MV-4-11 cells among the following five groups: Control group (◯), Continuous Dosing Group (●: 100 mg/kg/day; ⋄: 150 mg/kg/day) and 3QW Dosing Group 1 (▴: 233 mg/kg/day; ♦: 350 mg/kg/day).
To mice in the 3QW Dosing Group 1, 233 mg/kg/day or 350 mg/kg/day of Compound A was orally administered three days consecutively per week for two weeks (Days 1-3 and 8-10). The total dosage for mice in the 3QW Dosing Group 1 administered 233 mg/kg/day (Group 3QW1-1) was 1400 mg/kg, and the total dosage for mice in the 3QW Dosing Group 1 administered 350 mg/kg/day (Group 3QW1-2) was 2100 mg/kg.
Anti-tumor Effect and body weight change in 3QW Dosing Regimen 2 Similar to Example 1, anti-tumor effect and body weight change were studied in mice harboring MV-4-11 cells among the following five groups: Control group (0), Continuous Dosing Group (●: 100 mg/kg/day; ⋄: 150 mg/kg/day) and 3QW Dosing Group 2 (▴: 233 mg/kg/day; ♦: 350 mg/kg/day).
To mice in the 3QW Dosing Group 2, 233 mg/kg/day or 350 mg/kg/day of Compound A was orally administered every other day three times per week for two weeks (Days 1, 3, 5, 8, 10 and 12). […]

For a further experiment, the system named is NCI-H460 cells. The experiment can be described thus: Caspase-Glo 3/7 caspase induction assay in NCI-H460 cells treated with siRNA against SLFN11. Format: cell-based. The following applies: 10 micro mol/L, 24 h; NCI-H460 cells transfected with siRNA against SLFN11. The procedure:
A673 cells, NCI-H460 cells and CFPAC-1 cells were transfected with 1 nM siRNAs for 24 h using Lipofectaminet®RNAiMAX Reagent (Thermo Fisher Scientific Inc.) and then re-seeded onto a 96-well plate for cell proliferation assay and caspase induction assay and onto dishes for immunoblotting analysis. siRNAs were obtained from Thermo Fisher Scientific Inc. as follows: Silencer® Select Negative Control #1 siRNA (#4390843 used as siControl), SLFN11 Silencer® Select Pre-designed siRNA (#s40703 used as siSLFN11-1, #s40704 as siSLFN11-2, and #s40702 as siSLFN11-3).
Caspase induction assay was performed in accordance with conventional methods, available in Hasako., et al., ibid. Briefly, the cells with siRNAs for 24 h were seeded onto 96 well plate, incubated for 24 h, and then treated with Compound A for 24 h. Caspase induction was detected by using the Caspase-Glo 3/7 assay (Promega).

Consider `Cc1ccc(F)c([C@@H](C)[C@H](NS(=O)(=O)c2ccc(Cl)cc2C(N)=O)c2n[nH]c(=O)o2)c1C` [Compound A, 5-chloro-2-(N-((1S,2R)-2-(6-fluoro-2,3-dimethylphenyl)-1-(5-oxo-4,5-dihydro-1,3,4-oxadiazol-2-yl)propyl)sulfamoyl)benzamide], for which the “effect of reducing tumor volume, Group 3QW1-2 compared with Group C-2” value in experiment [1] (3QW (consecutive) 350 mg/kg/day vs continuous 150 mg/kg/day, total dosage 2100 mg/kg, not statistically significant) is on record as “similar”. Moreover, the “effect of reducing tumor volume, Group 3QW2-1 compared with Group C-1” value in experiment [1] (3QW (every other day) 233 mg/kg/day vs continuous 100 mg/kg/day, total dosage 1400 mg/kg, t-test P<0.05) is “higher than Group C-1”. The “effect of reducing tumor volume, Group 3QW2-2 compared with Group C-2” value in experiment [1] (3QW (every other day) 350 mg/kg/day vs continuous 150 mg/kg/day, total dosage 2100 mg/kg, not statistically significant) is “similar”. Moreover, the “effect of reducing tumor volume (RTV) compared to the Control Group” value is “showed the effect of reducing tumor volume compared to the Control Group” in experiment [1] (3QW Dosing Group 1, 233 or 350 mg/kg/day orally Days 1-3 and 8-10); “showed the effect of reducing tumor volume compared to the Control Group” in experiment [1] (3QW Dosing Group 2, 233 or 350 mg/kg/day orally Days 1, 3, 5, 8, 10 and 12); “showed the effect of reducing tumor volume compared to the Control Group” in experiment [1] (5QW Dosing Group 1, 140 or 210 mg/kg/day orally Days 1-5 and 8-12); “showed the effect of reducing tumor volume compared to the Control Group” in experiment [1] (5QW Dosing Group 2, 140 or 210 mg/kg/day orally Days 1-2, 4-6, 8-9 and 11-13); “showed the effect of reducing tumor volume compared to the Control Group” in experiment [1] (Continuous Dosing Group, 100 or 150 mg/kg/day orally once daily Day 1 to Day 14); “showed the effect of reducing tumor volume compared to the Control Group” in experiment [1] (QOD Dosing Group, 200 or 300 mg/kg/day orally Days 1, 3, 5, 7, 9, 11 and 13). Further, the “effect of reducing tumor volume (RTV) compared to the Control Group” value in experiment [1] (QW Dosing Group, 700 or 1050 mg/kg/day orally Days 1 and 8) is recorded as “showed the effect of reducing tumor volume compared to the Control Group”. Moreover, the “effect of reducing tumor volume, Group 5QW2-2 compared with Group C-2” value in experiment [1] (5QW (2 on/1 off/3 on/1 off) 210 mg/kg/day vs continuous 150 mg/kg/day, total dosage 2100 mg/kg, t-test p<0.05) is “higher than Group C-2 with a statistically significant difference”. In experiment [1] (5QW (consecutive) 210 mg/kg/day vs continuous 150 mg/kg/day, total dosage 2100 mg/kg, not statistically significant), the “effect of reducing tumor volume, Group 5QW1-2 compared with Group C-2” value is “similar”. Besides, in experiment [1] (QOD 200 mg/kg/day vs continuous 100 mg/kg/day, total dosage 1400 mg/kg, t-test p<0.05), the “effect of reducing tumor volume, Group QOD-1 compared with Group C-1” value is on record as “higher than Group C-1”. Also, in experiment [1] (QOD 300 mg/kg/day vs continuous 150 mg/kg/day, total dosage 2100 mg/kg, not statistically significant), the “effect of reducing tumor volume, Group QOD-2 compared with Group C-2” value is on record as “similar”. The “effect of reducing tumor volume, Group QW-2 compared with Group C-2” value in experiment [1] (QW 1050 mg/kg/day vs continuous 150 mg/kg/day, total dosage 2100 mg/kg, not statistically significant) is reported as “similar”. The “compound-induced caspase-3/7 activation after SLFN11 knockdown” value with NCI-H460 cells was “suppression”.
